Patent publication US20050096327A1, “Novel norepinephrine reuptake inhibitors for the treatment of central nervous system disorders” (priority 2003, published 2005)
Where a name gives a salt, the structure may show the parent alone.

Assays:
[1] = molecular target: T1, human norepinephrine transporter (Homo sapiens, UniProt P23975); assay: hNET receptor binding ([125I]-RTI-55, membranes of transfected HEK-293 cells); conditions: 50 pM [125I]-RTI-55, 90 min room temperature; IC50 converted by Cheng-Prusoff
T1 construct: host or cells: HEK-293
Procedure, shortened: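 Competition binding on membranes from HEK-293 cells transfected with human NET, using 50 pM [125I]-RTI-55 in Krebs-HEPES pH 7.4, drug 10^−5 to 10^−12 M in duplicate, 90 min at room temperature, filtration. Nonspecific binding defined with 10 μM desipramine; IC50 converted to Ki by Cheng-Prusoff.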

T1 sequence (P23975 whole entry): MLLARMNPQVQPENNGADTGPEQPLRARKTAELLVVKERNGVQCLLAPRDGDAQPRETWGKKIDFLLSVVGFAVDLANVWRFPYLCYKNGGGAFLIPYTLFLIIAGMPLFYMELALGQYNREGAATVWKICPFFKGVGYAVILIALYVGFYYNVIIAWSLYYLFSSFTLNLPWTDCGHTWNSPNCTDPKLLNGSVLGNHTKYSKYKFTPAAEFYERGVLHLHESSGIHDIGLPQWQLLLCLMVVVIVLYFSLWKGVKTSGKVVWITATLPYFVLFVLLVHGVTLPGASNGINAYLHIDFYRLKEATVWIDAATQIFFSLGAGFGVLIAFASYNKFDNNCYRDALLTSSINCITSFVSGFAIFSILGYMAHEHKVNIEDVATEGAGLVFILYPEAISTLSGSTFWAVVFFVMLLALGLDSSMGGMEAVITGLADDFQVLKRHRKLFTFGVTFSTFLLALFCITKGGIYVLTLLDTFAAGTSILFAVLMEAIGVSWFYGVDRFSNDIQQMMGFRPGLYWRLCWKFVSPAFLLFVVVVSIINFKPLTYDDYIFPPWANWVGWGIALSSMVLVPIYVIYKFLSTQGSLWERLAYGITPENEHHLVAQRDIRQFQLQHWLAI

Compound | Ki [1] [nM] | melting point [°C]
CC(C)c1nc(N2CCCNCC2)nc2ccccc12.Cl [Example 8, 2-[1,4]Diazepan-1-yl-4-isopropyl-quinazoline hydrochloride] | 4.8 | 193 to 194
Cl.c1ccc(-c2nc(N3CC4CCCC(C3)N4)nc3ccccc23)cc1 [Example 32, 2-(3,9-Diaza-bicyclo[3.3.1]non-3-yl)-4-phenyl-quinazoline hydrochloride] | 38.5 | > 300
COC(=O)C1(c2nc(-c3ccccc3)c3ccccc3n2)CCCNC1.Cl (centres unmarked) [Example 52, 3-(4-Phenyl-quinazolin-2-yl)-piperidine-3-carboxylic acid methyl ester hydrochloride] | 53.4 | 143 to 145
C[C@H]1CNCCN1c1nc(-c2ccccc2)c2ccccc2n1.Cl [Example 15, (S)-(+)-2-(2-Methyl-piperazin-1-yl)-4-phenyl-quinazoline hydrochloride] | 4.6 | 154 to 157
CC1CN(c2nc(-c3ccccc3)c3ccccc3n2)C(C)CN1.Cl (centres unmarked) [Example 9, 2-(2,5-Dimethyl-piperazin-1-yl)-4-phenyl-quinazoline hydrochloride] | 22 | 221 to 222
Cl.Fc1cccc(-c2nc(N3CCNCC3)nc3ccccc23)c1F [Example 37, 4-(2,3-Difluoro-phenyl)-2-piperazin-1-yl-quinazoline hydrochloride] | 3 | 273 to 276
Cl.c1ccc(-c2nc(N3CCCNCC3)nc3ccccc23)cc1 [Example 7, 2-[1,4]Diazepan-1-yl-4-phenyl-quinazoline hydrochloride] | 2 | 230 to 231
Cl.N[C@H]1CCCN(c2nc(-c3ccccc3F)c3ccccc3n2)C1 [Example 40, (S)-(+)-1-[4-(2-Fluoro-phenyl)-quinazolin-2-yl]-piperidin-3-ylamine hydrochloride] | 18 | 288 to 289
Cc1ccc(-c2nc(N3CCN(C)CC3)nc3ccccc23)cc1 [Example 2, 2-(4-Methyl-piperazin-1-yl)-4-p-tolyl-quinazoline] | 77.3 | 85 to 87
Fc1cccc(-c2nc(N3CCCNCC3)nc3ccccc23)c1F [Example 57, 2-[1,4]Diazepan-1-yl-4-(2,3-difluoro-phenyl)-quinazoline] | 4 | 203 to 206
C[C@@H]1CNCCN1c1nc(-c2ccccc2)c2ccccc2n1.Cl [Example 30, (R)-(−)-2-(2-Methyl-piperazin-1-yl)-4-phenyl-quinazoline hydrochloride] | 5.5 | 150 to 161
Cl.N[C@H]1CCN(c2nc(-c3ccccc3)c3ccccc3n2)C1 [Example 14, (S)-(+)-1-(4-Phenyl-quinazolin-2-yl)-pyrrolidin-3-ylamine hydrochloride] | 3.7 | 274 to 275
Fc1cccc(F)c1-c1nc(N2CCNCC2)nc2ccccc12 (as salt: hydrochloride) [Example 29, 4-(2,6-Difluoro-phenyl)-2-piperazin-4-yl-quinazoline hydrochloride] |  | 295 to 297
Cc1ccccc1-c1nc(N2CCN(C)CC2)nc2ccccc12 [Example 4, 2-(4-Methyl-piperazin-1-yl)-4-o-tolyl-quinazoline] | 34.1 | 91 to 94
CN1CCN(c2nc(-c3cccs3)c3ccccc3n2)CC1.O=C(O)C(=O)O [Example 27, 2-(4-Methyl-piperazin-1-yl)-4-thiophen-2-yl-quinazoline oxalate] | 67.4 | 216 to 217
CC1CN(c2nc(-c3ccccc3)c3ccccc3n2)CCN1 (centres unmarked) [Example 54, 2-(3-Methyl-piperazin-1-yl)-4-phenyl-quinazoline] | 41 | 107 to 108
c1ccc(-c2nc(N3C4CCC3CNC4)nc3ccccc23)cc1 [Example 56, 2-(3,8-Diaza-bicyclo[3.2.1]oct-8-yl)-4-phenyl-quinazoline] | 5 | 278 to 280
C[C@@H]1CN(c2nc(-c3ccccc3)c3ccccc3n2)CCN1 (as salt: salt) [Example 31, (R)-(+)-2-(3-Methyl-piperazin-1-yl)-4-phenyl-quinazoline] |  | 241 to 242
CC(C)c1nc(N2CCNCC2)nc2ccccc12.Cl [Example 6, 4-Isopropyl-2-piperazin-1-yl-quinazoline hydrochloride] | 16.5 | 253 to 254
Cl.c1ccc(-c2nc(C3CCCNC3)nc3ccccc23)cc1 (centres unmarked) (hydrate or solvate) |  | 231 to 232
Cl.NC1CCN(c2nc(-c3ccccc3)c3ccccc3n2)CC1 [Example 12, 1-(4-Phenyl-quinazolin-2-yl)-piperidin-4-ylamine hydrochloride] | 95.5 | > 300
Cl.NCCC1CCCN(c2nc(-c3ccccc3)c3ccccc3n2)C1 (centres unmarked) [Example 11, 2-[1-(4-Phenyl-quinazolin-2-yl)-piperidin-3-yl]-ethylamine hydrochloride] | 80.5 | 86 to 88
Cl.Fc1cccc(Cl)c1-c1nc(N2CCNCC2)nc2ccccc12 [Example 36, 4-(2-Chloro-6-fluoro-phenyl)-2-piperazin-1-yl-quinazoline hydrochloride] | 4 | 266 to 268
c1ccc(-c2nc(N3CC4CNCC4C3)nc3ccccc23)cc1 (centres unmarked) (as salt: salt) [Example 81, 2-(Hexahydro-pyrrolo[3,4-c]pyrrol-2-yl)-4-phenyl-quinazoline] |  | 267 to 270
COC(=O)C1(c2nc(-c3ccccc3F)c3ccccc3n2)CCNCC1.Cl [Example 51, 4-[4-(2-Fluoro-phenyl)-quinazolin-2-yl]-piperidine-4-carboxylic acid methyl ester hydrochloride] | 15.1 | 210 to 211
CN1CCN(c2nc(-c3cccc(F)c3)c3ccccc3n2)CC1 [Example 26, 4-(3-Fluoro-phenyl)-2-(4-methyl-piperazin-1-yl)-quinazoline] | 34.9 | 134 to 135
Cl.Fc1ccccc1-c1nc(N2CC3CNCC3C2)nc2ccccc12 (centres unmarked) [Example 39, 4-(2-Fluoro-phenyl)-2-(hexahydro-pyrrolo[3,4-c]pyrrol-2-yl)-quinazoline hydrochloride] | 41 | 270 to 278
COC(=O)C1(c2nc(-c3ccccc3)c3ccccc3n2)CCNCC1.Cl [Example 50, 4-(4-Phenyl-quinazolin-2-yl)piperidine-4-carboxylic acid methyl ester hydrochloride] | 9.8 | 227 to 228
CN1CCN(c2nc(-c3ccccc3F)c3ccccc3n2)CC1 [Example 18, 4-(2-Fluoro-phenyl)-2-(4-methyl-piperazin-1-yl)-quinazoline] | 12 | 123 to 124
CN1CC2CCCC(C1)N2c1nc(-c2ccccc2)c2ccccc2n1 [Example 5, 2-(3-Methyl-3,9-diaza-bicyclo[3.3.1]non-9-yl)-4-phenyl-quinazoline] | 42 | 118 to 121
